The values below come from paper PMC9395446, “First-in-human phase 1/1b study to evaluate sitravatinib in patients with advanced solid tumors” (Investigational New Drugs, 2022).

Values after ≈ are worked out from the molar mass of the structure shown.

For series [1] the following is noted: rat, in vivo, 4 weeks. The procedure: The starting dose of 10 mg QD was selected based on non-clinical, 4-week toxicology studies conducted in rats and dogs. […] The proposed human dose was based on one-tenth of the STD10 in rats corrected for body surface area (mg/m^2).
In another series the test system is VEGF-R2. The series is described as follows: Pharmacodynamic plasma markers VEGF-A and s-VEGF-R2, exposure-response analysis. The format is in vivo, human. The procedure:
PK samples were collected after a single dose during the PK lead-in period and following multiple oral doses during the study. Plasma PK samples were assayed for quantification of sitravatinib. The lower limit of quantification was 0.05 ng/mL. PK parameters were determined using a noncompartmental analysis approach including maximum (peak) concentration (Cmax), time to reach Cmax following drug administration (tmax), area under the plasma concentration–time curves (AUCs), apparent total clearance of the drug from plasma after oral administration, apparent volume of distribution during the terminal phase after administration and terminal elimination half-life (t1/2). PD effects were examined by analyzing VEGF-A ligand and soluble (s)-VEGF-R2 levels in patients’ plasma samples collected before and after sitravatinib administration.

For series [2], the system named is target RTKs, including AXL, MERTK, VEGF-R, KIT and MET. Particulars: read-out: Biochemical half-maximal inhibitory concentration, range; against target RTKs; cited from earlier work.

`COCCNCc1ccc(-c2cc3nccc(Oc4ccc(NC(=O)C5(C(=O)Nc6ccc(F)cc6)CC5)cc4F)c3s2)nc1` [sitravatinib, Sitravatinib]: the “Highest dose not exceeding the severely toxic dose in 10% of animals (STD10)” value in series [1] came to 10 mg/kg. Besides, the EC50 in the series on VEGF-R2 (Homo sapiens, plasma PD markers, drug target VEGF-R2, read-out: EC50 from exposure-response analysis) amounted to 0.0309 µg/mL (≈ 0.0491 µM). Moreover, the “VEGF-A percent change from baseline (increase)” value with VEGF-R2 (plasma, after sitravatinib administration) stood at 200%. The IC50 in series [2] was 1.5 to 20 nM.

What is called EC50 is the concentration that produces a half-maximal response.
